Source: the supplement of paper PMC4862054

Columns and labels:
Experiment in all cases: normalised response (% of control), CellTiter-Glo; higher = more viable cells (100 = DMSO, 0 = benzethonium chloride kill control)
Details in all cases: incubation time: 72 h
BT-474 = test system: BT-474
Summary of the method: (§1)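 Two readouts were taken after 72 h: CellTox Green fluorescence (485/520 nm) first, then CellTiter-Glo luminescence after 10 min at room temperature. Breast cancer cell lines had been seeded as 20 µl suspension into 384-well plates holding compound at 5 concentrations in 10-fold steps across a compound-specific 10,000-fold range. Each value is a normalised signal at a single concentration, with plates scaled to 0.1 % DMSO (100) and a positive kill control (0).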

BT-549 = test system: BT-549
Summary of the method: as §1

CAL-120 = test system: CAL-120
Summary of the method: as §1

CAL-148 = test system: CAL-148
Summary of the method: as §1

CAL-51 = test system: CAL-51
Summary of the method: as §1

CAL-85-1 = test system: CAL-85-1
Summary of the method: as §1

DU-4475 = test system: DU-4475
Summary of the method: as §1

HCC1143 = test system: HCC1143
Summary of the method: as §1

HCC1599 = test system: HCC1599
Summary of the method: as §1

HCC1937 = test system: HCC1937
Summary of the method: as §1

HDQ-P1 = test system: HDQ-P1
Summary of the method: as §1

Hs578T = test system: Hs578T
Summary of the method: as §1

MCF-10A = test system: MCF-10A
Summary of the method: as §1

MDA-MB-231 = test system: MDA-MB-231
Summary of the method: as §1

MDA-MB-436 = test system: MDA-MB-436
Summary of the method: as §1

MDA-MB-453 = test system: MDA-MB-453
Summary of the method: as §1

MDA-MB-468 = test system: MDA-MB-468
Summary of the method: as §1

MFM-223 = test system: MFM-223
Summary of the method: as §1

SK-BR-3 = test system: SK-BR-3
Summary of the method: as §1

Structure (SMILES)	normalised response (BT-474) [%]	normalised response (BT-549) [%]	normalised response (CAL-120) [%]	normalised response (CAL-148) [%]	normalised response (CAL-51) [%]	normalised response (CAL-85-1) [%]	normalised response (DU-4475) [%]	normalised response (HCC1143) [%]	normalised response (HCC1599) [%]	normalised response (HCC1937) [%]	normalised response (HDQ-P1) [%]	normalised response (Hs578T) [%]	normalised response (MCF-10A) [%]	normalised response (MDA-MB-231) [%]	normalised response (MDA-MB-436) [%]	normalised response (MDA-MB-453) [%]	normalised response (MDA-MB-468) [%]	normalised response (MFM-223) [%]	normalised response (SK-BR-3) [%]
O=C(/C=C/c1cccnc1)NCCCCC1CCN(C(=O)c2ccccc2)CC1 [Daporinad] (0.1 nM)	106	98.4	101	101	112	101	103	94	108	101	98.4	96.3	102	101	101	102	96.9	109	108
O=C(/C=C/c1cccnc1)NCCCCC1CCN(C(=O)c2ccccc2)CC1 [Daporinad] (1 nM)	106	98	105	101	114	103	105	106	106	101	98.1	97.1	106	101	105	88.8	103	87.2	113
Nc1ncn([C@H]2C[C@H](O)[C@@H](CO)O2)c(=O)n1 [Decitabine] (1 nM)	99.1	90	97	92.1	76.5	99	102	90.8	99.7	101	98.2	94.3	92.4	104	96.5	110	102	96.4	96.2
Nc1ccccc1NC(=O)c1ccc(CNC(=O)OCc2cccnc2)cc1 [Entinostat] (1 nM)	92.8	103	99.2	98.2	85.2	106	99.7	103	95.6	99.2	102	98.8	98.1	102	102	114	106	97.2	102
Nc1nc(F)nc2c1ncn2[C@@H]1O[C@H](CO)[C@@H](O)[C@@H]1O [Fludarabine] (1 nM)	111	101	98.4	97.2	93.1	101	99.8	110	102	99.3	103	110	113	99.9	120	112	103	109	111
CC[C@H](Nc1ncnc2[nH]cnc12)c1nc2cccc(F)c2c(=O)n1-c1ccccc1 [GS-1101] (1 nM)	92	102	90.1	84.8	101	95.1	100	89.9	96.3	91.6	88.3	96.8	79.2	98.5	92.5	88.3	93.4	85.4	88
CC[C@H](Nc1ncnc2[nH]cnc12)c1nc2cccc(F)c2c(=O)n1-c1ccccc1 [GS-1101] (10 nM)	93.7	92.7	93.2	87	122	95.3	100	93.2	112	92.3	94.2	97.4	89.7	93.2	88.3	89.1	99.8	87.8	65
C=CC(=O)N1CCC[C@@H](n2nc(-c3ccc(Oc4ccccc4)cc3)c3c(N)ncnc32)C1 [Ibrutinib] (0.1 nM)	101	102	97.1	101	99.3	100	102	96.3	104	97.3	93.6	104	109	102	96.8	110	103	106	109
C=CC(=O)N1CCC[C@@H](n2nc(-c3ccc(Oc4ccccc4)cc3)c3c(N)ncnc32)C1 [Ibrutinib] (1 nM)	103	97.8	97.7	114	102	98.3	106	106	102	95.3	98.2	99.3	111	105	98.2	107	105	108	98.1
O=C(Cc1ccc(-c2ccc(OCCN3CCOCC3)cc2)cn1)NCc1ccccc1 [KX2-391] (1 nM)	105	105	97.2	107	107	95.2	101	105	83.3	99.4	100	103	121	107	102	113	102	106	120
O=C(Cc1ccc(-c2ccc(OCCN3CCOCC3)cc2)cn1)NCc1ccccc1 [KX2-391] (10 nM)	103	102	101	112	73.2	97.3	104	104	100	98.4	98	103	107	100	98	101	94.6	106	87.6
N#Cc1ccc(C(c2ccc(C#N)cc2)n2cncn2)cc1 [Letrozole] (1 nM)	99.8	103	95.7	92	121	100	97.8	97.5	122	89.2	94.1	105	110	98.2	104	113	104	98.8	106
CCN(CC)CCCC(C)Nc1c2ccc(Cl)cc2nc2ccc(OC)cc12 (centres undefined) [Mepacrine] (5 nM)	96.1	104	107	94.5	97.8	93.8	96.2	97.5	95.6	102	105	100	107	99.8	111	96.9	100	97.2	104
CCN(CC)CCCC(C)Nc1c2ccc(Cl)cc2nc2ccc(OC)cc12 (centres undefined) [Mepacrine] (50 nM)	102	104	98.6	96.8	120	101	96.1	98	106	104	104	99.1	92.9	94	96.2	96.1	103	98.7	95.3
C[C@H]1C[C@@H]2[C@H]([C@@H](O)C[C@@]3(C)[C@H]2CC[C@]3(O)C(=O)CO)[C@@]2(C)C=CC(=O)C=C12 [Methylprednisolone] (1 nM)	110	100	103	120	100	94.5	108	99.1	113	99.3	99.6	103	103	105	99.5	116	104	103	109
C[C@H]1C[C@@H]2[C@H]([C@@H](O)C[C@@]3(C)[C@H]2CC[C@]3(O)C(=O)CO)[C@@]2(C)C=CC(=O)C=C12 [Methylprednisolone] (10 nM)	127	101	96.2	111	116	112	108	104	93.7	101	96.8	103	113	135	110	108	99.8	112	109
O=C(O)C(=O)O.[NH-][C@@H]1CCCC[C@H]1[NH-].[Pt+2] [Oxaliplatin] (1 nM)	91.9	103	98.5	91.3	110	91.3	91.7	93.2	95	93.9	98.2	98.9	96.6	94.2	106	86.8	86.7	91.2	90
O=C(O)C(=O)O.[NH-][C@@H]1CCCC[C@H]1[NH-].[Pt+2] [Oxaliplatin] (10 nM)	101	96.8	101	83.7	124	98.7	90.9	94	95	94.8	99.8	101	91	92.7	104	81.9	97.2	92	98.4
C=CCc1cccc(/C=N/NC(=O)CN2CCN(Cc3ccccc3)CC2)c1O [PAC-1] (1 nM)	97.7	105	96.8	96	129	99.7	100	101	101	106	105	104	113	103	97.5	103	109	102	109
C=CCc1cccc(/C=N/NC(=O)CN2CCN(Cc3ccccc3)CC2)c1O [PAC-1] (10 nM)	98.4	97.7	94.6	107	108	100	106	100	112	103	98.9	103	112	100	98.3	104	111	110	107
Nc1nc2[nH]cc(CCc3ccc(C(=O)N[C@@H](CCC(=O)O)C(=O)O)cc3)c2c(=O)[nH]1 [Pemetrexed] (1 nM)	97.8	105	106	98.9	90	94.2	95.1	91.6	85.1	96.8	105	101	95.7	97.4	98.7	101	99	92.6	101
